# Assay results from ChEMBL document CHEMBL1132968, “Substituent effects on the antibacterial activity of nitrogen-carbon-linked (azolylphenyl)oxazolidinones with expanded activity against the fastidious gram-negative organisms Haemophilus influenzae and Moraxella catarrhalis” (2000).
# How the values were obtained:
# Format in all cases: functional
# [1] = tested on: Enterococcus faecalis; assay: Inhibitory activity against Enterococcus faecalis UC9217
# [2] = tested on: Streptococcus pneumoniae; assay: Inhibitory activity against Streptococcus pneumoniae UC9912
# [3] = tested on: Staphylococcus aureus; assay: Inhibitory activity against Methicillin-resistant Staphylococcus aureus UC6685
# [4] = tested on: Moraxella catarrhalis; assay: Inhibitory activity against Moraxella catarrhalis UC30610
# [5] = tested on: Staphylococcus aureus; assay: Inhibitory activity against Methicillin-susceptible Staphylococcus aureus UC9213
# [6] = tested on: Staphylococcus epidermidis; assay: Inhibitory activity against Methicillin-resistant Staphylococcus epidermidis UC12084
# [7] = tested on: Haemophilus influenzae; assay: Inhibitory activity against Haemophilus influenzae UC30063
Structure (SMILES),MIC [1] [µg/mL],MIC [2] [µg/mL],MIC [3] [µg/mL],MIC [4] [µg/mL],MIC [5] [µg/mL],MIC [6] [µg/mL],MIC [7] [µg/mL]
CC(=O)NC[C@H]1CN(c2ccc(-n3cnc(C=O)n3)c(F)c2)C(=O)O1,4,0.5,2,8,4,0.5,8
CC(=O)NC[C@H]1CN(c2ccc(-n3cnc(C)n3)c(F)c2)C(=O)O1,8,1,4,16,8,2,> 16
CC(=O)NC[C@H]1CN(c2ccc(-n3ccc(NC(C)=O)n3)c(F)c2)C(=O)O1,4,0.5,8,> 16,8,2,> 16
CC(=O)NC[C@H]1CN(c2ccc(-n3nccn3)c(F)c2)C(=O)O1,4,1,2,> 16,4,1,> 16
CNC(=O)c1cn(-c2ccc(N3C[C@H](CNC(C)=O)OC3=O)cc2F)nn1,8,1,4,> 16,8,2,> 16
CCOC(=O)CCc1ccn(-c2ccc(N3C[C@H](CNC(C)=O)OC3=O)cc2F)c1,2,0.5,4,2,4,1,> 16
CC(=O)NC[C@H]1CN(c2ccc(-n3ccc(OC(C)=O)n3)c(F)c2)C(=O)O1,8,1,8,8,8,1,16
COc1ccn(-c2ccc(N3C[C@H](CNC(C)=O)OC3=O)cc2F)n1,16,2,8,16,8,2,16
CC(=O)NC[C@H]1CN(c2ccc(-n3ccc(C(C)O)c3)c(F)c2)C(=O)O1 (stereo partly drawn),8,2,16,> 16,16,4,> 16
CO/N=C(/C)c1ccn(-c2ccc(N3C[C@H](CNC(C)=O)OC3=O)cc2F)c1,2,0.5,2,8,4,1,> 16
CC(=O)NC[C@H]1CN(c2ccc(-n3cc(I)cn3)c(F)c2)C(=O)O1,2,0.5,2,8,2,1,> 16
CC(=O)NC[C@H]1CN(c2ccc(-n3cnc(CO)n3)c(F)c2)C(=O)O1,16,1,16,8,16,2,16
CC(=O)NC[C@H]1CN(c2ccc(-n3cnc(NC(=O)Cc4ccccc4)n3)c(F)c2)C(=O)O1,> 16,2,,> 16,> 16,> 16,> 16
CC(=O)NC[C@H]1CN(c2ccc(-n3cnc(N)n3)c(F)c2)C(=O)O1,16,1,4,16,8,2,> 16
CC(=O)NC[C@H]1CN(c2ccc(-n3cc(C(N)=O)nn3)c(F)c2)C(=O)O1,8,0.5,4,8,4,1,> 16
CC(=O)NC[C@H]1CN(c2ccc(-n3ccc(N)n3)c(F)c2)C(=O)O1,4,0.5,4,16,2,1,16
CC(=O)NC[C@H]1CN(c2ccc(-n3cnc(C#N)n3)c(F)c2)C(=O)O1,4,1,2,16,4,2,16
COC(=O)c1ncn(-c2ccc(N3C[C@H](CNC(C)=O)OC3=O)cc2F)n1,> 16,4,,> 16,> 16,4,> 16
CC(=O)NC[C@H]1CN(c2ccc(-n3cnc(C#N)c3)c(F)c2)C(=O)O1,2,0.25,4,4,4,0.5,8
CC(=O)NC[C@H]1CN(c2ccc(-n3ccc(C(F)(F)F)n3)c(F)c2)C(=O)O1,8,1,4,> 16,4,2,> 16
